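Step 1: Grow cells in 96-well plates. Step 2: Expose to compound for 48 hours at 5 concentrations. Step 3: Interpolate endpoints linearly; if unreached, use highest concentration. Here, GI50 denotes the concentration required for 50% inhibition of growth. At the TGI there is no net growth.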

Usually TGI stands for the concentration giving total growth inhibition. Read a high TGI as lower sensitivity of the cells. The GI50 is the concentration at which growth is held to half of that of the control.

Common to all, as to test: DTP human tumour cell line panel, 48 h
In assay [1] the test system is SNB-75 CNS.
Assay [2] concerns K-562 leukemia.
In assay [3] the test system is HL-60(TB) leukemia.
The test system of assay [4] is SN12C renal.
The test system of assay [5] is DMS 273 small cell lung.
In assay [6] the test system is SF-268 CNS.
The subject of assay [7] is SW-620 colon.
Assay [8] relates to HOP-92 NSCLC.
The test system of assay [9] is M19-MEL melanoma.
In assay [10] the test system is CCRF-CEM leukemia.
Assay [11] deals with NCI-H522 lung.
Assay [12] relates to U251 CNS.
In assay [13] the test system is COLO 205 colon.
The subject of assay [14] is SK-MEL-5 melanoma.
Assay [15] relates to SF-539 CNS.
In assay [16] the test system is OVCAR-3 ovarian.
The subject of assay [17] is NCI/ADR-RES ovarian.

In the case of `CC(=O)C(C(=O)C(=O)Nc1cc(Cl)c(Cl)cc1Cl)c1csc(N)n1` (stereo unspecified), the TGI in assay [1], in [2], in assay [3], in assay [4], in assay [5] and in assay [6] was more than 100 µM in each case. The concentration for total growth inhibition (TGI) in assay [7], in assay [8], in assay [9], in assay [10], in assay [11] and in assay [12] was more than 100 µM throughout. Further, the TGI in assay [13], in assay [14] and in assay [15] was more than 100 µM throughout.
Consider `CCCCCC1CC(C(C)=O)CN1c1ccc(F)cc1` (stereo unspecified), for which the TGI in assay [1] is 86.5 µM; in assay [3], more than 10 µM; in assay [4], more than 100 µM; in [16], 90.1 µM; in assay [5] it was more than 100 µM; in assay [6], more than 100 µM. The TGI in assay [7] was more than 100 µM; in assay [8], 83.6 µM; in assay [9], more than 100 µM; in assay [11] it was 56.5 µM; in [12], more than 100 µM; in [13] it was more than 100 µM. Moreover, the TGI in [14] is 38.3 µM; in [15], more than 100 µM.
`O=[N+]([O-])c1cc(C(F)(F)F)cc2c1SC1=Nc3ccccc3CN12`: the TGI in assay [1], in assay [2], in assay [3], in assay [4], in [16] and in [5] was more than 100 µM throughout. The concentration for total growth inhibition (TGI) in assay [6], in assay [7], in assay [8], in assay [9], in [17] and in [10] was more than 100 µM in each case. Moreover, the TGI in assay [11], in assay [12], in [13], in [14] and in [15] was more than 100 µM throughout.
With `NCCCC(N)(C(=O)O)C(F)F` (stereo unspecified), the TGI in assay [1], in assay [2], in assay [3], in assay [4], in [16] and in [5] was more than 5000 µM each time. Also, the TGI in assay [6] is more than 5000 µM; in [7], more than 5000 µM; in assay [8], more than 5000 µM; in [9], more than 5000 µM; in assay [17], more than 5000 µM; in assay [10], more than 1580 µM. For the same compound, the TGI in assay [11], in assay [12], in [13], in assay [14] and in assay [15] was more than 5000 µM throughout.
Take `O=C(N/N=C/c1cc(Cl)cc(Cl)c1[O-])c1ccccc1O.O=C(N/N=C/c1cc(Cl)cc(Cl)c1[O-])c1ccccc1O.[Cu+2]`: the TGI came out at 2.13 µM in assay [1]; 0.545 µM in [2]; 0.512 µM in [3]; 0.778 µM in assay [16]; 1.61 µM in [6]; 1.97 µM in assay [7]. Besides, the TGI in assay [8] was 0.671 µM; in [11], 0.568 µM; in assay [12], 1.34 µM; in assay [13], 0.348 µM; in assay [14] it was 0.966 µM; in assay [15] it was 1.02 µM. Besides, the GI50 was 0.224 µM in [8], 0.186 µM in [13] and 0.306 µM in assay [15].
With `CCn1c(=O)c2c3ccc(O)cc3[nH]c2c2ccc(O)cc21`, the TGI in assay [1], in assay [2], in assay [4], in [16], in assay [6] and in [7] was more than 100 µM throughout. For the same compound, the TGI in assay [8], in [17], in assay [10], in [11], in [12] and in [13] was more than 100 µM throughout. Further, the TGI in assay [14] and in assay [15] was more than 100 µM in each case.
For the compound `CCN(CC)CCCNC(=O)c1ccccc1Nc1c(Cl)cccc1Cl`, the TGI is 15.4 µM in assay [1]; 23 µM in assay [2]; 12.5 µM in assay [3]; 27.2 µM in assay [4]; 31.1 µM in assay [5]; 30.2 µM in assay [6]. Besides, the TGI is 30.1 µM in [7]; 11 µM in assay [9]; 21.3 µM in assay [10]; 28 µM in assay [13]; 10.7 µM in assay [14]; 23.7 µM in [15].
For the compound `CCC/C=C/C=C\C(=O)O[C@@H]1[C@@H](C)[C@]2(O)[C@@H]3C=C(C)C(=O)[C@H]3CC(COC(C)=O)=C[C@H]2[C@@H]2C(C)(C)[C@]12OC(C)=O`, the TGI in assay [1] worked out at 121 µM; in assay [2], 128 µM; in [3], 30.5 µM; in assay [4], 100 µM; in [16], 91.2 µM; in [5] it was 82.4 µM. Further, the TGI is 87.7 µM in assay [6]; 70 µM in assay [7]; 156 µM in assay [8]; 76.5 µM in assay [9]; 114 µM in assay [17]; 36.2 µM in assay [10]. Further, the TGI in [11] is more than 89.6 µM; in assay [12], 69.1 µM; in [13], 22.5 µM; in assay [14], 108 µM; in assay [15], 83.5 µM.
